In US20230109839A1, “THERAPEUTIC AGENT FOR TAUOPATHIES” (SUMITOMO PHARMA CO., LTD., priority 2020, published 2023):
Entries after “also recorded” stand apart in the source; their conditions may differ. Read-outs that look alike come from different tables or passages of the source.

Columns and labels:
[1] = tested on: phosphorylated tau oligomer; assay: Evaluation of phosphorylated tau oligomers in brain of APP-Tg mice, Western blotting (Test 4); format: in vivo, mouse; conditions: for Reducing effect of phosphorylated tau oligomer: 7-10 days, with ABT 1 mg/g-food; for reducing effect of tau oligomer: with food for 7-10 days, ABT 1 mg/g-food depending on the compound, brain, anti-oligomerized tau antibody TOMA-1
Protocol: Test 4: Evaluation of Phosphorylated Tau Oligomers Using APP-Tg Mice
This test is a test to quantify the oligomer of phosphorylated tau in the brain to evaluate the action of a compound. […] The APP-Tg mice used herein were prepared by the method described in Test 3.
The test compound administered with food to APP-Tg mice for 7-10 days. At this time, in order to increase the blood concentration of the test compound, ABT was used in combination with a mixed diet of 1 mg/g-food depending on the compound. After the administration, the brain was collected, and the protein is extracted from the collected brain using TBS (Tris Buffered Saline) or sarcosyl, and then SDS-PAGE (sodium dodecyl sulfate-polyacrylamide gel electrophoresis) of the soluble or insoluble fraction was performed. After that, Western blotting was performed using an anti-oligomerized tau antibody (Anti-Tau, oligomeric, clone TOMA-1), and the effect of the test compound was evaluated by quantifying the band amount of the phosphorylated tau oligomer.
The reducing effect of phosphorylated tau oligomer was calculated by the following formula, and from the calculated values, the results were defined as follows: 0-25%: +, 25-50%: ++, 50-75%: +++, and 75-100%: ++++. The significant difference from the vehicle-administered group was determined using the Student t-test. For the band amount, the value corrected by the β-actin band amount was used.
Reducing effect of phosphorylated tau oligomer={(band amount of oligomerized tau in vehicle-administered group−band amount of oligomerized tau in test compound-administered group)/band amount of oligomerized tau in vehicle-administered group}×100

[2] = target: T1, human Nav1.1 (Homo sapiens, UniProt P35498); assay: Amplification of Nav1.1-derived voltage-gated sodium current (Nav1.1 current), automated patch clamp (Test 1); format: cell-based; conditions: read-out: Nav1.1 current amplification rate (%)
T1 construct: host or cells: HEK293
Procedure, shortened: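 Compound-induced change in ramp-evoked sodium current peak and AUC was expressed as 100×post/pre ratio minus 100. Recordings used automated patch clamp in voltage-clamp mode on a stable human Nav1.1 HEK293 line, including only cells above 500 pA. Compounds were delivered in extracellular fluid containing 1% DMSO.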

[3] = tested on: APP-Tg mouse; assay: Evaluation of the cognitive function by novel object recognition test (NORT) in APP-Tg mice (Test 3); format: in vivo; parameters: key to Discrimination index: (novel − known search time)/(novel + known search time); conditions: for improvement of cognitive function (NORT), summary of the above results / improvement of cognitive function (NORT): APP-Tg mice; for improvement of cognitive function (NORT), summary of the above results: alone, with Elacridar or with ABT depending on the compound; for improvement of cognitive function (NORT): test compound and ABT (1 mg/g-food) administered with food for 10 days; for Discrimination index: APP-Tg mouse, with ABT 1 mg/g-food
Protocol: Test 3: Evaluation of the Cognitive Function by Novel Object Recognition Test (Hereinafter, Also Referred to as “NORT”)
The present test is for evaluating the improvement of cognitive function with the test compounds. When an APP-Tg mouse which is an AD (Alzheimer's disease) model mouse is evaluated by NORT, the memory for a familiar object decreases depending on the time interval between the first trial run (training) and the second trial run (test). For example, if the first trial run is done and 3 hours later the second one is done, there is no difference in the searching times between novel object and known object for the APP-Tg mouse, compared with a healthy mouse. Thus, the APP-Tg mouse suffers from significant amnesia.
The APP-Tg mouse used herein was prepared by constructing an expression cassette linked to human APP751 isoform to which Swedish (K670N/M671L) and Indiana (V717F) mutation were introduced at downstream of mouse Thy-1 promoter, then injecting the expression cassette into a mouse fertilized egg, and transplanting it to a host mouse. The prepared mouse presents with intracerebral AB accumulation and cognitive dysfunction from early on, and thus the mouse can be used for the evaluation of cognitive function. APP-Tg mouse has been also reported in Non-patent literature 6.
To the prepared APP-Tg mouse, the test compound was administered, and then the first trial run was done for the mouse 30 minutes after the intraperitoneal administration or after 10 days of mixed diet administration. The second trial run was done 3 hours after the first trial run, and the searching times between novel object and known object in the second trial were evaluated. The discrimination index was calculated from the searching time for novel object and known object in the second trial run, and the improvement of cognitive function of the test compound was confirmed by comparing the discrimination index with the test compound-unadministered group as an index of the cognitive function. The discrimination index was calculated by the following formula.
Discrimination index={(Searching time for novel object)−(Searching time for known object)}/{(Searching time for novel object)+(Searching time for known object)}
The present test can be also done with a combination with Elacridar (Tokyo Chemical Industry Co., Ltd.). Elacridar can inhibit P-gp and BCRP which are excretion transporters expressed in the blood-brain barrier and thereby Elacridar has the effect of improving the transferability of the test compound to the brain. Eracridal was orally administered to APP-Tg mice at 100 mg/kg 2 hours before the first trial run, and then the test compound was intraperitoneally administered to the mice 30 minutes before the first trial run according to the above method. And, the improvement of cognitive function was evaluated. The significant difference from the vehicle-administered group was determined using the parametric Dunnett multiple comparison test.
And, the present test can be also done with a combination with ABT (1-aminobenzotriazole) (Tokyo Chemical Industry Co., Ltd.). ABT has the effect of improving the blood concentration of the test compound by inhibiting CYP and suppressing metabolism. The test compound and ABT (1 mg/g-food) were administered with food to APP-Tg mice for 10 days, and then the improvement of cognitive function was evaluated according to the above method. The significant difference from the vehicle-administered group was determined using the parametric Dunnett multiple comparison test.

[4] = HEK293, Concentration for evaluation 1 μM, HEK293 cell line stably expressing human Nav1.1
[5] = HEK293, concentration for evaluation 1 μM, HEK293 stably expressing human Nav1.1

activation at 1 µM [2, 4] | activation at 1 µM [2, 5] | SMILES | Reducing effect of phosphorylated tau oligomer ([1]; dose 0.2 mg/g-food) | Reducing effect of phosphorylated tau oligomer ([1]; dose 2 mg/g-food) | reducing effect of tau oligomer [1] | improvement of cognitive function (NORT), summary of the above results [3] | improvement of cognitive function (NORT) [3] | Discrimination index ([3]; dose 0.2 mg/g-food for 10 days) | Discrimination index ([3]; dose 2 mg/g-food for 10 days) | Reducing effect of phosphorylated tau oligomer ([1]; dose 0.1 mg/g-food) | Reducing effect of phosphorylated tau oligomer ([1]; dose 4 mg/g-food) | Discrimination index ([3]; dose 0.1 mg/g-food for 10 days) | Discrimination index ([3]; dose 4 mg/g-food for 10 days)
120% | – | CN(c1cnc2cnn(CC(=O)Nc3ccn4ncnc4c3)c2n1)C1CC2(CC2)C1 [Example 630, 2-{6-[methyl(spiro[2.3]hexan-5-yl)amino]-1H-pyrazolo[3,4-b]pyrazin-1-yl}-N-([1,2,4]triazolo[1,5-a]pyridin-7-yl)acetamide] | ++ (25-50%: ++) | ++ (25-50%: ++) | some reducing effect of tau oligomer | some improvement of cognitive function | some improvement of cognitive function | 0.04 | 0.45 | – | – | – | –
102% | – | N#Cc1ccc(NC(=O)Cn2ncc3ncc(N4CCC5(CC5)C(F)(F)C4)nc32)cn1 [Example 746, N-(6-cyanopyridin-3-yl)-2-[6-(4,4-difluoro-6-azaspiro[2.5]octan-6-yl)-1H-pyrazolo[3,4-b]pyrazin-1-yl]acetamide] | ++ (25-50%: ++) | ++ (25-50%: ++) | some reducing effect of tau oligomer | some improvement of cognitive function | some improvement of cognitive function | 0.28 | 0.38 | – | – | – | –
106% | – | CN(c1cnc2cnn(CC(=O)Nc3ccc(C#N)nc3)c2n1)C1CC2(CC2)C1 [Example 753, N-(6-cyanopyridin-3-yl)-2-{6-[methyl(spiro[2.3]hexan-5-yl)amino]-1H-pyrazolo[3,4-b]pyrazin-1-yl}acetamide] | – | – | some reducing effect of tau oligomer | – | – | – | – | ++ (25-50%: ++) | ++ (25-50%: ++) | 0.21 | 0.28
– | 88% | CN(CC1CCC1)c1ncc2cnn(CC(=O)Nc3ccc4ncnn4c3)c2n1 [Example 819, 2-{6-[(cyclobutylmethyl)(methyl)amino]-1H-pyrazolo[3,4-d]pyrimidin-1-yl}-N-([1,2,4]triazolo[1,5-a]pyridin-6-yl)acetamide] | ++ (25-50%: ++) | + (0-25%: +) | some reducing effect of tau oligomer | some improvement of cognitive function | some improvement of cognitive function; also recorded: strong improvement of cognitive function | 0.47 | 0.52 | – | – | – | –
– | 116% | CN(c1ncc2cnn(CC(=O)Nc3ccc4ncnn4c3)c2n1)C1CC(C)(C)C1 [Example 821, 2-{6-[(3,3-dimethylcyclobutyl)(methyl)amino]-1H-pyrazolo[3,4-d]pyrimidin-1-yl}-N-([1,2,4]triazolo[1,5-a]pyridin-6-yl)acetamide] | + (0-25%: +) | + (0-25%: +) | – | some improvement of cognitive function | some improvement of cognitive function; also recorded: strong improvement of cognitive function | 0.30 | 0.37 | – | – | – | –
